The values that follow come from patent US7091183B1 (Boston Medical Center Corporation, priority 1996, dated 2006).

Where no end group is shown, it is not given here.

The target in assay [1] is T1, rat GIP receptor (Rattus norvegicus, UniProt P43219).
T1 construct: expressed in transfected cells; host or cells: L cells (LGIPR2), also carrying a VIP-promoter/lacZ cAMP reporter
T1 sequence (P43219 19-455): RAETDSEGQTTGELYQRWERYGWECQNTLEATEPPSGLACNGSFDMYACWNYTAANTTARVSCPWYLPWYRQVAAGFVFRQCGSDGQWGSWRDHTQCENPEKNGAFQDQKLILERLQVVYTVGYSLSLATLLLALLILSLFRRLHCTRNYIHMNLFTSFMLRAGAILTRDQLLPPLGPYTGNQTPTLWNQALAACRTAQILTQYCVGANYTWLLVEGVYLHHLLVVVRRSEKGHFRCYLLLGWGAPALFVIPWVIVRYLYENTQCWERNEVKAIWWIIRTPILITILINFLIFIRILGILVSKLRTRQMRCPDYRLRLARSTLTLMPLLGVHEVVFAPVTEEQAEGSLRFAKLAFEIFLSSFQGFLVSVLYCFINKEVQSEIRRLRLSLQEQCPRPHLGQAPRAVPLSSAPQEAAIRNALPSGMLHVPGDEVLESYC
Description: cAMP-dependent β-galactosidase production in LGIPR2 cells (agonist activity). In kind it is cell-based. The source says:
LGIPR2 cells are stably transfected with a cAMP-dependent promoter from the VIP gene fused to the bacterial lac Z gene. When intracellular cAMP increases within these cells, lac Z gene transcription is activated, resulting in the accumulation of its product, β-galactosidase. The measurement of β-galactosidase in this system provided a convenient, inexpensive, and nonradioactive method for detecting changes in the levels of intracellular cAMP. […] The medium was then removed and wells rinsed once with phosphate-buffered saline (PBS). The plates were then blotted briefly and frozen overnight at −70° C., and, after the addition of chlorophenol red-β-D-galactopyranoside, accumulated β-galactosidase was detected using a calorimetric assay, as described previously (Usdin, et al., 1993, Endocrinology, 133:2861–2870). […] Natl. Acad. Sci. USA, 90:1992–1996).

Assay [2] has as its target T1, rat GIP receptor. Description: Inhibition of GIP (1–42)-stimulated cAMP-dependent β-galactosidase production in LGIPR2 cells. In kind it is cell-based. As to the method:
LGIPR2 cells are stably transfected with a cAMP-dependent promoter from the VIP gene fused to the bacterial lac Z gene. When intracellular cAMP increases within these cells, lac Z gene transcription is activated, resulting in the accumulation of its product, β-galactosidase. The measurement of β-galactosidase in this system provided a convenient, inexpensive, and nonradioactive method for detecting changes in the levels of intracellular cAMP.
LGIPR2 cells were grown in Dulbecco's Modified Eagle's Medium (DMEM) containing 4.5 g/L of glucose and 10% fetal calf serum. For each assay, 10^5 cells/well were seeded onto 24-well plates. After incubation overnight, peptides were added in various concentrations to the wells in the absence of 3-isobutyl-methylxanthine (IBMX) for 4 h, at which time maximal stimulation of β-galactosidase was determined. The medium was then removed and wells rinsed once with phosphate-buffered saline (PBS). The plates were then blotted briefly and frozen overnight at −70° C., and, after the addition of chlorophenol red-β-D-galactopyranoside, accumulated β-galactosidase was detected using a calorimetric assay, as described previously (Usdin, et al., 1993, Endocrinology, 133:2861–2870).
Values are expressed as the mean±SE of quadruplicate measurements.

The subject of another assay is fasted anesthetized rats. The assay is described as follows: Intravenous infusion of peptides in fasting anesthetized rats, plasma insulin. In kind it is in vivo, rat.
Another assay relates to conscious trained rats. The assay is described as follows: Postprandial plasma insulin, serum glucose and GLP-1 in trained conscious fed rats. In kind it is in vivo, rat. The conditions noted are these: for postprandial plasma insulin concentration: chow 30 min. As to the method: Postprandial plasma insulin and serum glucose levels were studied in conscious trained rats. […] To avoid such a response, rats were trained for 10 d before experimentation. They were fasted from 17:00 to 08:00, and 0.9% NaCl (0.3 ml) was injected subcutaneously at 08:00 before feeding. After the injection of 0.9% NaCl, animals were given rat chow for 30 min, after which it was removed. At the end of ten days, the rats were accustomed to the injection and ate quickly (consuming 4–6 g of rat chow within 30 min).
On the day of the experiment, after fasting from 17:00 the night before, trained rats were injected subcutaneously at 08:00 with 0.3 ml of either 0.9% NaCl or ANTGIP (SEQ ID NO:8) (100 nmol/kg). This dose was chosen to approximately the amount of peptide used in the anesthetized animal studies of Example 3. After injection, six of the fasted control rats were killed to obtain baseline serum glucose and insulin levels. ANTGIP (SEQ ID NO:8)- or 0.9% NaCl-treated rats (n=6 in each group) were exposed to chow for 30 min, after which food was withdrawn.

The subject of the next assay is rats. The assay is described as follows: Oral glucose tolerance test in rats. In kind it is in vivo, rat. The conditions noted are these: ANTGIP 300 ng/kg i.p., glucose 1 g per kg by gavage. As to the method:
Oral glucose tolerance tests were performed on rats injected intraperitoneally with ANTGIP (SEQ ID NO:8) (300 ng/kg) or 0.9% saline solution. After the intraperitoneal injection of 0.9% NaCl or ANTGIP (SEQ ID NO:8), an oral glucose tolerance test was performed. The test was done by administering a 40% glucose solution by oral gavage at a dose of 1 g per kg. The volume administered to each rat was approximately 0.5 ml. Blood was obtained at various time points for subsequent measurement of plasma insulin and glucose levels.

Assay [3] deals with jejunal test segment of anesthetized rats. The assay is described as follows: Intestinal glucose absorption from perfused jejunal segment. In kind it is in vivo, rat. The conditions noted are these: ANTGIP 10 nmol/kg i.v. single injection, 30 minute perfusion. As for the experimental part: Male Sprague-Dawley rats weighing about 200–250 g are fasted overnight and anesthetized using intraperitoneal urethane (about 1.25 g per kg body weight). After midline laparotomy, an about 30-cm segment of jejunum, starting at about 5 cm distal to the ligament of Treitz, is isolated and flushed with approximately 20 ml of about 0.9% NaCl. The jejunal test segments are each perfused twice, initially with control buffer and then once again with control buffer or with the test solution. The test solution consists of Kres-Ringer-bicarbonate buffer containing about 5 mmol/L [^14C]D-glucose, and ^3H-labeled polyethylene glycol is included in the luminal perfusate to correct for fluid movement. The test or control solution is perfused through the jejunal segment without recirculation at a flow rate of about 1.6 ml/min, using a Harvard PHD 2000 syringe pump (Harvard Apparatus, Millis, Mass.). The effluent from the luminal segment is collected at about 5-min intervals for about 30 min. After the initial period of perfusion, the luminal contents in the jejunum are flushed with about 20 ml of about 0.9% NaCl prior to the initiation of the second period of perfusion.
Data points are believed to represent the rate of glucose disappearance from the luminal perfusate corrected for fluid movement. Results are expressed as the mean±SE of five experiments. […]

The mark [4] stands for this setting: 20 min, ANTGIP 100 nmol/kg s.c.
The mark [5] stands for this setting: 40 min, ANTGIP 100 nmol/kg s.c.

A word on the IC50: it is the point on the concentration scale where inhibition reaches its midpoint. Read a low IC50 as inhibition by little substance. As for “ISDYSIAMDKIRQQDFVNWLLAQK-NH2 [ANTGIP, GIP (7–30)-NH2]”, the “stimulation of cAMP-dependent β-galactosidase production (versus GIP (1–42) / above control levels)” value on rat GIP receptor [1] (10^−8 M peptide, 4 h) is on record as “none”. Further, the “increase in cAMP-dependent β-galactosidase level” value at rat GIP receptor [1] (concentration as high as 10^−4 M) was “did not stimulate a detectable increase”. For the same substance, the 50% inhibitory concentration (IC50) against rat GIP receptor [2] turned out to be 100 nM. On rat GIP receptor [2] (10^−8 M GIP (1–42) plus fragment at 10^−8 M or 10^−6 M, 4 h), the “antagonism of the cAMP stimulatory effect of GIP (1–42)” value is recorded as “attenuate the cAMP stimulatory effects”. Further, the “change in the insulin response to GLP-1, glucose or arginine” value in the assay on fasted anesthetized rats (ANTGIP 100 nmol/kg concomitantly) is “No significant change”. The “effect on the insulinotropic properties of GIP” value with fasted anesthetized rats (ANTGIP 100 nmol/kg concomitantly with GIP 1.5 nmol/kg) is listed as “completely abolished”. For the same substance, the “effect on insulin secretion, alone” value with fasted anesthetized rats (ANTGIP infusion alone, 30 min) is given as “had no effect on insulin secretion”. Besides, in the assay on conscious trained rats (setting [4]), the “postprandial serum GLP-1 level” value turned out to be 290 ± 10 pg/mL and the “postprandial plasma insulin concentration” value was determined as 25.3±4.7 μIU/ml. For the same substance, in the assay with conscious trained rats (setting [5]), the “postprandial serum GLP-1 concentration” value was 330±20 pg/mgl and the “postprandial plasma insulin concentration” value came out at 27.1±2.6 μIU/ml. Further, the “postprandial serum glucose concentration versus saline” value in the assay on conscious trained rats (ANTGIP 100 nmol/kg s.c.) is “similar”. In the assay on conscious trained rats (chow-fed rats), the “decrease in postprandial insulin release” value is on record as 72%. Also, in the assay on rats, the “plasma glucose after oral glucose versus control rats” value was “diminished at all time points” and the “plasma insulin levels after oral glucose” value was “reduced plasma insulin levels”. For the same substance, the “absorption of D-glucose from the jejunal test segment” value in assay [3] is “significantly reduce”.
